Legend:
[1] = tested on: ABUTH; test: Post-emergence herbicidal action against ABUTH; assay type: in vivo, Abutilon theophrasti; settings: Abutilon theophrasti, 504 h, visual assessment about 3 weeks after treatment vs untreated controls
In short: (§1)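 Sandy loam, greenhouse; treatment 2–3 weeks after sowing, one-leaf stage. Aqueous suspension or emulsion from WP/EC sprayed on foliage (600–800 l/ha, 0.2% wetting agent). Readout: visual % action, ~3 weeks.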

[2] = tested on: SETVI; test: Pre-emergence herbicidal action against SETVI; assay type: in vivo, Setaria viridis; settings: Setaria viridis, 504 h
In short: (§2)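 Seeds sown in sandy loam, soil-covered; compound sprayed on soil surface pre-emergence. Application: WP/EC, 600–800 l/ha, 0.2% wetting agent. Readout: visual % damage at 3 weeks.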

[3] = tested on: AVEFA; test: Pre-emergence herbicidal action against AVEFA; assay type: in vivo, Avena fatua; settings: Avena fatua, 504 h; 80 g/ha, pre-emergence
In short: as §2

[4] = tested on: POLCO; test: Pre-emergence herbicidal action against POLCO; assay type: in vivo, Polygonum convolvulus; settings: Fallopia convolvulus, 504 h
In short: as §2

[5] = tested on: ALOMY; test: Pre-emergence herbicidal action against ALOMY; assay type: in vivo, Alopecurus myosuroides; settings: Alopecurus myosuroides, 504 h; 80 g/ha, pre-emergence, scored visually after 3 weeks vs untreated controls (100% = plants have died, 0% = like control plants)
In short: as §2

[6] = tested on: AMARE; test: Post-emergence herbicidal action against AMARE; assay type: in vivo, Amaranthus retroflexus; settings: Amaranthus retroflexus, 504 h, 20 g/ha, visual assessment about 3 weeks after treatment, 100% = plants have died, 0% = like control plants
In short: as §1

[7] = tested on: SETVI; test: Post-emergence herbicidal action against SETVI; assay type: in vivo, Setaria viridis; settings: Setaria viridis, 504 h
In short: as §1

[8] = tested on: VERPE; test: Pre-emergence herbicidal action against VERPE; assay type: in vivo, Veronica persica; settings: Veronica persica, 504 h, dosage 80 g/ha
In short: as §2

[9] = tested on: AMARE; test: Pre-emergence herbicidal action against AMARE; assay type: in vivo, Amaranthus retroflexus; settings: Amaranthus retroflexus, 504 h, scored visually after 3 weeks vs untreated controls, 100% = plants have died, 0% = like control plants
In short: as §2

[10] = tested on: DIGSA; test: Post-emergence herbicidal action against DIGSA; assay type: in vivo, Digitaria sanguinalis; settings: Digitaria sanguinalis, 504 h
In short: as §1

[11] = tested on: VERPE; test: Post-emergence herbicidal action against VERPE; assay type: in vivo, Veronica persica; settings: Veronica persica, 504 h, 20 g/ha
In short: as §1

[12] = tested on: MATIN; test: Pre-emergence herbicidal action against MATIN; assay type: in vivo, Matricaria inodora; settings: Tripleurospermum inodorum, 504 h
In short: as §2

[13] = tested on: ECHCG; test: Post-emergence herbicidal action against ECHCG; assay type: in vivo, Echinochloa crus-galli; settings: Echinochloa crus-galli, 504 h
In short: as §1

[14] = tested on: VIOTR; test: Post-emergence herbicidal action against VIOTR; assay type: in vivo, Viola tricolor; settings: Viola tricolor, 504 h
In short: as §1

[15] = tested on: ECHCG; test: Pre-emergence herbicidal action against ECHCG; assay type: in vivo, Echinochloa crus-galli; settings: Echinochloa crus-galli, 504 h
In short: as §2

[16] = tested on: DIGSA; test: Pre-emergence herbicidal action against DIGSA; assay type: in vivo, Digitaria sanguinalis; settings: Digitaria sanguinalis, 504 h, dosage 80 g/ha
In short: as §2

[17] = tested on: ABUTH; test: Pre-emergence herbicidal action against ABUTH; assay type: in vivo, Abutilon theophrasti; settings: Abutilon theophrasti, 504 h, 80 g/ha, scored visually after 3 weeks vs untreated controls (100% = plants have died, 0% = like control plants)
In short: as §2

[18] = tested on: PHBPU; test: Post-emergence herbicidal action against PHBPU; assay type: in vivo, Pharbitis purpurea; settings: Ipomoea purpurea, 504 h, dosage 20 g/ha
In short: as §1

[19] = tested on: VIOTR; test: Pre-emergence herbicidal action against VIOTR; assay type: in vivo, Viola tricolor; settings: Viola tricolor, 504 h
In short: as §2

[20] = tested on: AVEFA; test: Post-emergence herbicidal action against AVEFA; assay type: in vivo, Avena fatua; settings: Avena fatua, 504 h, 20 g/ha, visual assessment about 3 weeks after treatment, 100% = plants have died, 0% = like control plants
In short: as §1

[21] = tested on: PHBPU; test: Pre-emergence herbicidal action against PHBPU; assay type: in vivo, Pharbitis purpurea; settings: Ipomoea purpurea, 504 h, dosage 80 g/ha
In short: as §2

[22] = tested on: MATIN; test: Post-emergence herbicidal action against MATIN; assay type: in vivo, Matricaria inodora; settings: Tripleurospermum inodorum, 504 h
In short: as §1

Work on `COc1c(C(=O)Nc2nnnn2C)ccc(C(F)(F)F)c1C(=O)NC1CC1` [Example 1-58] yielded a pest or weed control at 5 g/ha ([1]; dosage 5 g/ha) of 90%, a pest or weed control at 20 g/ha ([1]; dosage 20 g/ha) of 90% and a pest or weed control at 20 g/ha ([2]; dosage 20 g/ha) of 100%. For the same molecule, the pest or weed control at 80 g/ha ([2]; dosage 80 g/ha) was 100%, the pest or weed control at 80 g/ha [3] was 80% and the pest or weed control at 20 g/ha ([4]; dosage 20 g/ha) was 80%. It also gave a pest or weed control at 80 g/ha ([4]; dosage 80 g/ha) of 90%, a pest or weed control at 80 g/ha [5] of 90% and a pest or weed control at 20 g/ha [6] of 100%. The pest or weed control at 5 g/ha ([7]; dosage 5 g/ha) was 100%, the pest or weed control at 20 g/ha ([7]; dosage 20 g/ha) was 100% and the pest or weed control at 80 g/ha [8] was 100%. For the same molecule, the pest or weed control at 20 g/ha ([9]; 20 g/ha) was 100%, the pest or weed control at 80 g/ha ([9]; 80 g/ha) was 100% and the pest or weed control at 5 g/ha ([10]; 5 g/ha) was 100%. It also gave a pest or weed control at 20 g/ha ([10]; 20 g/ha) of 100%, a pest or weed control at 20 g/ha [11] of 80% and a pest or weed control at 20 g/ha ([12]; dosage 20 g/ha) of 90%. For the same molecule, the pest or weed control at 80 g/ha ([12]; dosage 80 g/ha) was 100%, the pest or weed control at 5 g/ha ([13]; dosage 5 g/ha) was 90% and the pest or weed control at 20 g/ha ([13]; dosage 20 g/ha) was 90%. The pest or weed control at 5 g/ha ([14]; 5 g/ha) was 90%, the pest or weed control at 20 g/ha ([14]; 20 g/ha) was 100% and the pest or weed control at 20 g/ha ([15]; 20 g/ha) was 100%. The pest or weed control at 80 g/ha ([15]; 80 g/ha) was 100%, the pest or weed control at 80 g/ha [16] was 80% and the pest or weed control at 80 g/ha [17] was 80%. For the same molecule, the pest or weed control at 20 g/ha [18] was 90%, the pest or weed control at 20 g/ha ([19]; dosage 20 g/ha) was 100% and the pest or weed control at 80 g/ha ([19]; dosage 80 g/ha) was 100%. For the same molecule, the pest or weed control at 20 g/ha [20] was 90%, the pest or weed control at 80 g/ha [21] was 90% and the pest or weed control at 5 g/ha ([22]; dosage 5 g/ha) was 80%. It also gave a pest or weed control at 20 g/ha ([22]; dosage 20 g/ha) of 90%.

From patent US12655116B2, “Substituted isophthalic acid diamides” (Bayer Aktiengesellschaft, priority 2020, dated 2026)
